Literature values, collected in patent US7071293B1, “Alpha helical peptides with broad spectrum antimicrobial activity that are insensitive to salt” (priority 1999, dated 2006).
Converted amounts (≈) assume the structure as drawn. “And” between values parts separate entries of the source, which are not always exact repeats. Identical values can stand only once. Like-named read-outs stand apart in the source and are kept apart here.

Columns and labels:
Streptococcus pneumoniae = conditions: cited from earlier work
Haemophilus influenzae = conditions: cited from earlier work; for MIC50 / MIC90: in µg/mL; for Range: MIC range
Streptococcus pyogenes = conditions: in µg/mL; cited from earlier work
Campylobacter pylori = conditions: cited from earlier work
Streptococcus agalactiae = conditions: cited from earlier work
[1] = test system: Branhamella (Moraxella) catarrhalis; conditions: MIC range; Branhamella (Moraxella) catarrhalis (β-lactamase producer); cited from earlier work
Neisseria gonorrhoeae = conditions: cited from earlier work; for MIC90: in µg/mL
Enterococcus faecium = conditions: cited from earlier work
[2] = test system: Haemophilus parainfluenzae; conditions: cited from earlier work
Bacteroides fragilis = conditions: cited from earlier work
Haemophilus ducreyi = conditions: cited from earlier work
Borrelia burgdorferi = conditions: cited from earlier work
Neisseria meningitidis = conditions: cited from earlier work
Enterococcus spp. = conditions: cited from earlier work
Campylobacter jejuni = conditions: cited from earlier work
Listeria monocytogenes = conditions: cited from earlier work
Staphylococcus aureus = conditions: cited from earlier work
Bacillus spp. = conditions: cited from earlier work
Streptococcus spp. = conditions: cited from earlier work
[3] = test system: Bordetella bronchiseptica; conditions: cited from earlier work
[4] = Haemophilus influenzae (non β-lactamase producer)
[5] = Haemophilus influenzae (penicillin resistant)
[6] = Haemophilus influenzae (penicillin susceptible)
[7] = Haemophilus influenzae (β-lactamase producer)
[8] = Staphylococcus aureus (penicillin susceptible)

Q: With `CC[C@H]1OC(=O)[C@H](C)[C@@H](O[C@H]2C[C@@](C)(OC)[C@@H](O)[C@H](C)O2)[C@H](C)[C@@H](O[C@@H]2O[C@H](C)C[C@H](N(C)C)[C@H]2O)[C@](C)(O)C[C@@H](C)C(=O)[C@H](C)[C@@H](O)[C@]1(C)O` [ERYTHROMYCIN, erythromycin] as the molecule, how does the Range (Streptococcus pneumoniae; MIC range) read?
A: 0.03–0.25 and 0.015–0.06 and 0.015–0.25

Q: And the MIC50 (Streptococcus pneumoniae; in µg/mL)?
A: 0.06 and 0.03

Q: What about the MIC90 (Streptococcus pneumoniae; in µg/mL) of the same molecule?
A: 0.03 and 0.06

Q: What about the MIC50 (Haemophilus influenzae; [4]) of the same molecule?
A: 2 and 4

Q: And the MIC90 (Haemophilus influenzae; [4])?
A: 4 and 8

Q: And the MIC50 (Haemophilus influenzae; [5])?
A: 8

Q: What about the MIC90 (Haemophilus influenzae; [5]) of the same molecule?
A: 16

Q: What about the MIC50 (Haemophilus influenzae; [6]) of the same molecule?
A: 8

Q: And the MIC90 (Haemophilus influenzae; [6])?
A: 16

Q: What about the MIC50 (Haemophilus influenzae; [7]) of the same molecule?
A: 4 and 2

Q: What about the MIC90 (Haemophilus influenzae; [7]) of the same molecule?
A: 8 and 4

Q: And the MIC50 (Haemophilus influenzae; Haemophilus influenzae)?
A: 2 and 1

Q: And the MIC90 (Haemophilus influenzae; Haemophilus influenzae)?
A: 2 and 4

Q: What about the Range (Haemophilus influenzae; [5]) of the same molecule?
A: 8–16

Q: What about the Range (Haemophilus influenzae; [6]) of the same molecule?
A: 0.25–16

Q: What about the Range (Haemophilus influenzae; Haemophilus influenzae) of the same molecule?
A: 0.5–8

Q: And the MIC50 (Streptococcus pyogenes)?
A: 0.06 and 0.03

Q: What about the Range (Campylobacter pylori; MIC range) of the same molecule?
A: 0.25–16

Q: What about the MIC50 (Campylobacter pylori) of the same molecule?
A: 0.5 µg/mL (≈ 0.681 µM)

Q: What about the Range (Streptococcus agalactiae; MIC range) of the same molecule?
A: 0.03–0.25 and 0.015–0.06

Q: What about the MIC50 (Streptococcus agalactiae) of the same molecule?
A: 0.03 µg/mL (≈ 0.0409 µM)

Q: What about the MIC90 (Streptococcus agalactiae) of the same molecule?
A: 0.03 µg/mL (≈ 0.0409 µM)

Q: And the Range [1]?
A: 0.06–1 and 0.03–0.25 and 0.06–8

Q: What about the Range (Neisseria gonorrhoeae; MIC range, Neisseria gonorrhoeae (non β-lactamase producer)) of the same molecule?
A: 0.015–4 and 0.03–2

Q: And the MIC90 (Neisseria gonorrhoeae; Neisseria gonorrhoeae (non β-lactamase producer))?
A: 2 and 1

Q: What about the MIC90 (Neisseria gonorrhoeae; Neisseria gonorrhoeae (β-lactamase producer)) of the same molecule?
A: 2 and 4

Q: What about the MIC90 (Neisseria gonorrhoeae; Neisseria gonorrhoeae) of the same molecule?
A: 1

Q: And the MIC50 (Enterococcus faecium)?
A: 1 µg/mL (≈ 1.36 µM)

Q: What about the Range ([2]; MIC range) of the same molecule?
A: 0.5–8

Q: And the MIC50 [2]?
A: 2 µg/mL (≈ 2.73 µM)

Q: What about the MIC90 [2] of the same molecule?
A: 4 µg/mL (≈ 5.45 µM)

Q: What about the Range (Bacteroides fragilis; MIC range) of the same molecule?
A: 0.25–16

Q: What about the MIC50 (Bacteroides fragilis) of the same molecule?
A: 1 µg/mL (≈ 1.36 µM)

Q: And the MIC90 (Bacteroides fragilis)?
A: 8 µg/mL (≈ 10.9 µM)

Q: And the MIC50 (Haemophilus ducreyi)?
A: 0.004 µg/mL (≈ 0.00545 µM)

Q: What about the MIC90 (Haemophilus ducreyi) of the same molecule?
A: 0.06 µg/mL (≈ 0.0818 µM)

Q: And the MIC50 (Borrelia burgdorferi)?
A: 0.03 µg/mL (≈ 0.0409 µM)

Q: What about the MIC90 (Borrelia burgdorferi) of the same molecule?
A: 0.06 µg/mL (≈ 0.0818 µM)

Q: What about the Range (Neisseria meningitidis; MIC range) of the same molecule?
A: 0.5–8

Q: What about the MIC50 (Neisseria meningitidis) of the same molecule?
A: 1 µg/mL (≈ 1.36 µM)

Q: And the MIC90 (Neisseria meningitidis)?
A: 8 µg/mL (≈ 10.9 µM)

Q: And the MIC50 (Enterococcus spp.)?
A: 2 µg/mL (≈ 2.73 µM)

Q: What about the Range (Campylobacter jejuni; MIC range) of the same molecule?
A: 0.5–8

Q: What about the MIC90 (Campylobacter jejuni; in µg/mL) of the same molecule?
A: 4 and 2

Q: And the MIC50 (Listeria monocytogenes)?
A: 0.5 µg/mL (≈ 0.681 µM)

Q: And the MIC50 (Staphylococcus aureus; Staphylococcus aureus (methicillin susceptible))?
A: 0.5 µg/mL (≈ 0.681 µM)

Q: What about the MIC50 (Staphylococcus aureus; [8]) of the same molecule?
A: 0.5 µg/mL (≈ 0.681 µM)

Q: And the MIC90 (Staphylococcus aureus; [8])?
A: 0.5 µg/mL (≈ 0.681 µM)

Q: And the MIC50 (Staphylococcus aureus; Staphylococcus aureus)?
A: 0.5 µg/mL (≈ 0.681 µM)

Q: And the Range (Bacillus spp.; MIC range)?
A: 0.03–2

Q: What about the MIC90 (Bacillus spp.) of the same molecule?
A: 2 µg/mL (≈ 2.73 µM)

Q: What about the MIC50 (Streptococcus spp.) of the same molecule?
A: 0.03 µg/mL (≈ 0.0409 µM)

Q: What about the Range ([3]; MIC range) of the same molecule?
A: 4–32

Q: And the MIC50 [3]?
A: 8 µg/mL (≈ 10.9 µM)

Q: What about the MIC90 [3] of the same molecule?
A: 32 µg/mL (≈ 43.6 µM)
